Data on 2 compounds can be found in publication PMC3858267, “The Enhanced In Vivo Activity of the Combination of a MEK and a PI3K Inhibitor Correlates with [^18F]-FLT PET in Human Colorectal Cancer Xenograft Tumour-Bearing Mice” (PLoS ONE, 2013).

Details of data set [1]: method as in PMID 18754654, PMID 21838594. To be noted: in mice; cited from earlier work.
The subject of data set [2] is HT29 human tumour xenografts. In words: Anti-tumour activity (time to RTV3/RTV4) in HT29 human tumour xenografts. The data set is classed as in vivo, mice. To be noted: 1 mg/kg PD 0325901, 100 mg/kg GDC-0941, alone or in combination, p.o. once daily for 14 days. How it is done:
Animal studies were all carried out using female athymic CD1 nude mice (Charles River, Kent, UK), implanted with HCT116 or HT29 xenografts (1×10^7 cells in 50 µl media injected subcutaneously into the right flank), maintained and handled in isolators under specific pathogen-free conditions.

The conditions of data set [3]: rat, in vivo, 100 mg/kg; cited from earlier work.
For data set [4] the following is noted: cited from earlier work.
Details of data set [5]: method as in PMID 20332327. The conditions noted are these: single agent; such as retinal vein occlusion; cited from earlier work.

Turning to `CS(=O)(=O)N1CCN(Cc2cc3nc(-c4cccc5[nH]ncc45)nc(N4CCOCC4)c3s2)CC1` [GDC-0941, 2-(1H-Indazol-4-yl)-6-(4-methanesulfonyl-piperazin-1-ylmethyl)-4-morpholin-4-yl-thieno[3,2-d]pyrimidine], the oral bioavailability in data set [1] is recorded as 78%. In data set [2], the “Time to RTV3, Mean ± SD” value was 11 ± 9 days; the “Time to RTV3, Median ± IR” value worked out at 10 ± 6 days; the “Time to RTV4, Mean ± SD” value worked out at 13 ± 9 days; the “Time to RTV4, Median ± IR” value was 10 ± 5 days.
Turning to `O=C(NOC[C@H](O)CO)c1ccc(F)c(F)c1Nc1ccc(I)cc1F` [PD 0325901], in data set [3], the “toxicity of oral and i.v. doses” value is recorded as “non-toxic”. In addition, the maximum tolerated dose in data set [4] is 25 mg/kg. Further, in data set [5], the “toxicity in clinical trials” value is “ocular and neurological toxicity”. In data set [2], the “Time to RTV3, Mean ± SD” value turned out to be 10 ± 4 days; the “Time to RTV3, Median ± IR” value came to 10 ± 4 days; the “Time to RTV4, Mean ± SD” value amounted to 11 ± 4 days; the “Time to RTV4, Median ± IR” value came out at 11 ± 3 days.
